Entries after “also recorded” stand apart in the source; their conditions may differ. Where two headings read alike, the source gives them in different places.
What was measured:
[1] = in water; cited from earlier work
[2] = Analysis of optical characteristics (absorption, fluorescence emission, quantum yield) in solvents; type: physicochemical; conditions: for Fluorescence Emission Intensity / Peak emission wavelength λmax em(nm) / Relative fluorescence Emission Intensitynorm: H2O at 2 μM; for Peak emission wavelength λmax em(nm): excited at the longest absorption maxima; for Relative fluorescence Emission Intensitynorm: normalized fluorescence intensity; for Fluorescence quantum yield (Φ): Rhodamine 6G as a standard (Φ = 0.86 in water)
In short: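 Optical properties of indolizinoquinoline compounds were examined in solvents. A 10 mM DMSO stock was diluted into the solvent, and fluorescence emission spectra were recorded at 20° C. on a JASCO FP-6500 spectrofluorometer. Absorption spectra were taken at room temperature on a Perkin Elmer Lamda 20 UV/VIS spectrometer. Fluorescence quantum yield (Φ) was determined.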

PDEδ [3] = target: T1, PDEδ (Homo sapiens, UniProt O43924); assay: Confirmation of target protein using FRET; type: binding; conditions: irradiated with 280-nm light
T1 construct: made in house; host or cells: E. coli
T1 sequence (O43924 whole entry): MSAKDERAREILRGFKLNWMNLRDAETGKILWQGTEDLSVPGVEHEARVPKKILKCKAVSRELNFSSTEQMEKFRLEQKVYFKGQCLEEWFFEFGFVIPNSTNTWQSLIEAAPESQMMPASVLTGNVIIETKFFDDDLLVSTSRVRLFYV
Protocol: Therefore, to confirm whether the fluorescent material is able to selectively bind to a specific protein in a cell, fluorescence of the recombinant PDE and/or indolizino[3,2-c]quinoline compound, which is overexpressed in E. coli cells, followed by isolation and purification, was measured by being irradiated with 280-nm light.

cells [4] = assay: Comparison of fluorescence stability with conventionally developed dyes; type: cell-based
cells [5] = assay: Co-staining / co-localization with DAPI, MitoTracker or LysoTracker; type: cell-based
HeLa cells = assay: Cell permeability: fluorescence imaging and live cell confocal imaging; type: cell-based; conditions: HeLa cells
Protocol: HeLa cells were seeded in a 96-well plate and incubated for 24 hours. The cells were treated with the indolizino[3,2-c]quinoline compounds, and incubated at 37° C. under a 5% CO2 condition for 30 minutes. After removal of the medium, the cells were washed with 1×DPBS. The washed cells were fixed with 4% formaldehyde at room temperature for 10 minutes, and washed with 1×DPBS. A cell image was screened using an Operetta HTS imaging system (PerkinElmer).
After HeLa cells were seeded to account for 70 to 80% of the area of a confocal dish (SPL life science) and overnight cultured, the indolizino[3,2-c]quinoline compounds (10 μM) prepared by mixing fresh DMEM after removal of the existing DMEM medium were dispensed, and the cells were incubated for 30 minutes to 1 hour at 37° C. Afterward, if needed, LysoTracker (50 nM) was mixed with DMEM to remove the existing medium and then dispensed to the cells, and the cells were incubated for 30 minutes at 37° C. After incubation, without washing, the cells were examined by a confocal laser microscope (Leica TCS SP8 SMD, Leica, Mannheim, Germany). However, when co-stained with a LysoTracker, the cells were washed with DPBS twice before the microscopy. […]

PDEδ [6] = target: T1, PDEδ; assay: Titration using fluorescence polarization; type: binding; conditions: Table 9
PDEδ [7] = target: T1, PDEδ; assay: Titration using fluorescence polarization; type: binding; conditions: 0.5 μM compound, PDEδ protein from 0 to 32 μM
Protocol: To confirm whether the indolizino[3,2-c]quinoline compound can bind to a specific intracellular protein, in the presence of 0.5 μM of the indolizino[3,2-c]quinoline compound, titration was performed by increasing the concentration of the PDEδ protein from 0 to 32 μM to measure a polarization degree.

[8] = system: DNA oligomers (48 bp) tetO sequences; assay: Binding to DNA by fluorescence spectrophotometer; conditions: hybridized tetO DNA oligomers added, 1 minute incubation
Protocol: Using a fluorescence spectrophotometer, it was confirmed whether the indolizino[3,2-c]quinoline compound of the present invention binds to DNA. First, DNA oligomers (48 bp) used in the experiment are tetO sequences, and the base sequences thereof are as follows.
The same molarities of oligomers were mixed while being heated at 95° C. for 5 minutes and cooled to room temperature for 2 hours to hybridize, the fluorescence of each of the indolizino[3,2-c]quinoline compounds of the present invention was measured, a corresponding equivalent of DNA oligomer was added to a cuvette, and then incubated while blocking light for 1 minute to measure fluorescence again.

SMILES | kmax em(nm) (PDEδ [6]) | λabs(nm) (PDEδ [6]) | Kd (PDEδ [7]) [nM] | quantum yield (Φ) ([2]; DW, standard Rhodamine 6G) | quantum yield (Φ) ([2]; EtOH, standard Coumarin 153) | Fluorescence Emission Intensity [2] | Peak emission wavelength λmax em(nm) [2] [nm] | Relative fluorescence Emission Intensitynorm [2] | further results
O=c1cc(C(F)(F)F)c2cc3c4c(c2o1)CCCN4CCC3 [Coumarin 153] | – | – | – | – | – | – | – | – | quantum yield of the standard (Φ) [1]: 0.12
O=[N+]([O-])c1ccc(-c2nc3ccccc3c3cc4ccccn4c23)cc1 [IQ 2, 6-(4-nitrophenyl)indolizino[3,2-c]quinoline] | – | – | – | – | – | – | – | – | fluorescence (intensity, in words) [2]: did not induce fluorescence; fluorescence change / binding to PDEδ by FRET (PDEδ [3]): low fluorescence intensity
Cc1cccn2c1cc1c3ccccc3nc(-c3ccc([N+](=O)[O-])cc3)c12 [IQ 13, 11-methyl-6-(4-nitrophenyl)indolizino[3,2-c]quinoline] | – | – | – | – | – | – | – | – | fluorescence (intensity, in words) [2]: did not induce fluorescence; fluorescence change / binding to PDEδ by FRET (PDEδ [3]): no change in fluorescence
CN(C)c1ccc(-c2nc3ccccc3c3cc4ccccn4c23)cc1 [IQ 36, 4-(indolizino[3,2-c]quinolin-6-yl)-N,N-dimethylaniline] | – | – | – | – | – | – | – | – | fluorescence stability compared with commercially available dyes (cells [4]): superior stability, compared to Sytoselect; staining pattern compared with conventional dyes (cells [5]): an aspect similar to RNA select for staining RNA; also recorded: stains RNA in a pattern similar to the now currently available Sytoselect; staining pattern compared with conventional dyes (cells [5]; listed as Formula 12): works as a complementary stain with respect to DAPI; intracellular molecule recognized (HeLa cells): recognized intracellular RNA; intracellular organelles in which fluorescence is detected (HeLa cells): intensively distributed in cytoplasmic and nucleolus areas
Brc1ccc(-c2nc3ccccc3c3cc4ccccn4c23)cc1 [compound 1] | 530 | 430 | 284 | 0.015 | 0.636 | 32.7 | 522 | 0.14 | Maximum absorption wavelength λmax abs(nm) [2]: 400 nm
Cc1ccc(-c2nc3ccccc3c3cc4ccccn4c23)cc1 [compound 3] | 526 | 440 | 491 | 0.068 | 0.839 | 59.7 | 519 | 0.26 | change in fluorescence intensity on addition of DNA oligomer [8]: Decrease in fluorescence intensity
c1ccc(-c2nc3ccccc3c3cc4ccccn4c23)cc1 [compound 4] | 515 | 430 | 505 | 0.039 | 0.779 | 55.0 | 519 | 0.24 | change in fluorescence intensity on addition of DNA oligomer [8]: Decrease in fluorescence intensity
COc1ccc(-c2nc3ccccc3c3cc4ccccn4c23)cc1 [compound 6] | 515 | 430 | 729 | – | – | 231.3 | 514.5 | 0.99 | shift of maximum emission wavelength on addition of DNA oligomer [8]: wavelength to longer wavelength; Absorption coefficient (cm^−1M^−1) [2]: 6547 cm^−1M^−1; Absorption wavelength λex(nm) [2]: 430 nm; Emission wavelength λem(nm) [2]: 515 nm; Maximum absorption wavelength λmax abs(nm) [2]: 430 nm; λem (nm) ([2]; DMF): 469 nm; λem (nm) ([2]; DMSO): 512 nm; λem (nm) ([2]; EtOH): 465 nm; λem (nm) ([2]; EtOH:CHCl3 = 1:5): 466 nm; λem (nm) ([2]; H2O): 511 nm; λem (nm) ([2]; MC): 467 nm; Fluorescence quantum yield (Φ) [2]: 0.121
COc1ccc(-c2nc3ccccc3c3cc4ccccn4c23)cc1OC [compound 8] | 515 | 430 | 1280 | 0.102 | 0.652 | 171.3 | 513 | 0.74 | shift of maximum emission wavelength on addition of DNA oligomer [8]: wavelength to longer wavelength
c1ccc2c(-c3nc4ccccc4c4cc5ccccn5c34)cccc2c1 [compound 9] | 515 | 430 | 1540 | – | – | 232.9 | 514 | 1.00 | Absorption coefficient (cm^−1M^−1) [2]: 11656 cm^−1M^−1; Absorption wavelength λex(nm) [2]: 405 nm; Emission wavelength λem(nm) [2]: 515 nm; λem (nm) ([2]; DMF): 478 nm; λem (nm) ([2]; DMSO): 514 nm; λem (nm) ([2]; EtOH): 465.5 nm; λem (nm) ([2]; EtOH:CHCl3 = 1:5): 467.5 nm; λem (nm) ([2]; H2O): 516 nm; λem (nm) ([2]; MC): 469 nm; Fluorescence quantum yield (Φ) [2]: 0.053
c1ccc2cc(-c3nc4ccccc4c4cc5ccccn5c34)ccc2c1 [compound 10] | 530 | 430 | 643 | 0.015 | 0.350 | 39.6 | 532 | 0.17 | change in fluorescence intensity on addition of DNA oligomer [8]: Increase in fluorescence intensity

From US10787448B2, “Indolizino [3,2-C] quinoline-based fluorescent probe” (SEOUL NATIONAL UNIVERSITY R & DB FOUNDATION, priority 2015, dated 2020)
